Assay results published in US10918629B2, “Method for treating lymphedema” (The Curators of the University of Missouri, priority 2014, dated 2021).
“And” between values parts separate entries of the source, which are not always exact repeats. Identical values can stand only once. “Also recorded” adds a separate entry of the source.

What was measured:
healthy lymphangion = assay: Rescue of valve lock in isolated pressurized lymphangions under elevated pressure; set-up: species or system mouse
Source text: FIG. 1A and FIG. 1B depict single (FIG. 1A) and multiple (FIG. 1B) lymphangion preparations showing measurements of pressure, diameter and valve position. FIG. 1C and FIG. 1D depict 1-valve preparations used for valve closure (FIG. 1C) and back-leak (FIG. 1D) tests. Color coding applies to pressure, diameter & valve traces shown in all subsequent figures; blue=upstream. black=mid segment, red=downstream. Pin and Pout are controlled with a computer-based servo controller; PL is intraluminal pressure measured with a servo-null micropipette inserted through the wall; diameters are measured with computer-based edge detection^(15); valve positions are determined using densitometry windows as shown^(21,22,69,71).
Studies were made of single and multiple lymphangions from mice under hydrostatic conditions simulating those experienced in primary and secondary lymphedema. When a progressive rise in outflow pressure is imposed, simulating the pressure load on the vessel in a dependent extremity, the normal response of the vessel is a myogenic constriction to Pout elevation (arrow, described in detail in ref.^(71)) with continued pumping, such that internal pressure generation slightly exceeds Pout during systole of each contraction cycle (*); as a result the output valve opens briefly in systole, allowing partial ejection. […]

mouse popliteal vessel = assay: Contractile function of isolated lymphatic vessels with impaired contractility
Source text: FIG. 9A, FIG. 9B, FIG. 9C and FIG. 9D depict the effect of norepinephrine (NE) on vessels with impaired contractility. […] FIG. 9C depicts that NE enhanced contractions in 13/14 vessels with impaired contractions and (FIG. 9D) induced >3.5-fold increase in FREQ (contraction frequency) and 2-fold increase in AMP (contraction amplitude) in a subset 8 vessels that had control contractions.
Data has been obtained to support the contention that NE has the potential not only to relieve valve lock (FIG. 3C) but also to enhance pump function. […] It is presumed that NE works by enhancing inotropy under these conditions and that it may be particularly effective in vessels fatigued or in partial pump failure from chronic pressure overload.

[1] = system: human mesenteric lymphatic vessels; assay: Isolated pressurized human mesenteric lymphatic vessel segments, response to NE; details: 33 nM NE
Protocol: Recently, 1-, 2- and 3-valve segments of human mesenteric lymphatic vessels obtained following bariatric surgery were studied and their responses to Pout and/or Pin elevation and NE were tested. These are the first such measurements in isolated pressurized human lymphatics. […] Like rat/mouse vessels, the valves are biased to be open in the absence of a pressure gradient (arrowhead). Valve gating curves or tests for valve lock were unable to be performed because the vessels were too large to be studied on the microscope used with the pressure controller. However, it was encouraging to find that every response tested was similar to those of rat/mouse vessels.

[2] = system: dysfunctional lymphatic vessels; assay: Phenylephrine on dysfunctional mouse lymphatic vessel; details: mouse diseased tissue sample, FIG. 18
[3] = system: dysfunctional lymphatic vessels; assay: KATP channel inhibitor / L-type calcium channel agonist on diseased mouse tissue sample; details: single agent, FIG. 20
Protocol: Glibendamide was then applied to a disease mouse tissue sample. […] The combination of glibenclamide and BayK8644 was then evaluated in a diseased mouse tissue sample. […] BayK8644, along with BayR5417 and FPL64176, are exemplary L-type calcium channel agonists.

[4] = subset of 8 vessels that had control contractions

## NC[C@H](O)c1ccc(O)c(O)c1 [NE, norepinephrine]
Healthy lymphangion; pressure remains elevated, dose that counteracts the loss of tone but does not fuse contractions
  relief of valve lock: relieves valve lock; also recorded: reverses valve lock; also recorded: can be rescued
Healthy lymphangion; prophylactic application, vessel not yet failed
  working range of a lymphangion pumping against an output load: can be extended
Mouse popliteal vessel; 10^−8 to 10^−7M, FIG. 9
  dose-dependent effect on frequency, tone and inotropy: increases in frequency, tone and inotropy
Mouse popliteal vessel; fatigued or weakly contracting vessels
  effect on contractions and pumping of vessels with impaired contractility: induce tone and spontaneous contractions; also recorded: induced robust contractions that persisted when pressure was elevated; also recorded: restores contraction and pumping; also recorded: induces spontaneous contractions; also recorded: consistent, large-amplitude contractions
Mouse popliteal vessel; preliminary analysis, FIG. 9C
  likelihood of having spontaneous contractions: doubles
Mouse popliteal vessel; [4]
  increase in AMP (contraction amplitude): 2 fold
  increase in FREQ (contraction frequency): 3.5 fold and > 3.5 fold
Mouse popliteal vessel; vessels with impaired contractions, knock-out mouse developing hindlimb edema
  vessels with enhanced contractions: 13/14
[1]
  effect on tone: increase in tone
  increase in AMP: ~50%
  increase in FREQ: ~2 fold

## CNC[C@H](O)c1cccc(O)c1 [PE, phenylephrine]
[2]
  effect on contraction and pumping: restored contraction and pumping; also recorded: improves/restores normal contractions and pumping functions

## COc1ccc(Cl)cc1C(=O)NCCc1ccc(S(=O)(=O)NC(=O)NC2CCCCC2)cc1 [glibenclamide]
[3]
  effect on contractions and pumping functions: improves/restores normal contractions and pumping functions
